# Assay results: patent US5530018A, “Meso-azanoradamantanes” (G. D. Searle & Co., priority 1994, dated 1996)
# “Also recorded” adds a separate entry of the source. Where a name gives a salt, the structure may show the parent alone.
# Tests used:
# 5-HT4 receptors = settings: cited from earlier work
# myenteric neurons = settings: cited from earlier work
# 5-HT4 receptor [1] = settings: mouse embryonic colliculi neurons; cited from earlier work
# 5-HT4 receptor [2] = target: T1, 5-HT4 receptor (Rattus norvegicus, UniProt Q62758); assay: cell-based; settings: carbachol (3 μM)-contracted rat TMM, 37° C., tissues from 5 rats; read-out: 5-HT4 Agonism (Rat TMM) In Vitro Assay: EC50 values
# T1 construct: One 2 cm segment of intrathoracic esophagus proximal to the diaphragm was removed from male rats; from tissue; host or cells: rat intrathoracic oesophagus, inner tunica muscularis mucosae
# Description: (§1) 5-HT4 agonist activity was determined in the in vitro rat tunica muscularis mucosae (TMM) assay described herein. (Baxter et al., Naunyn Schmied Arch. Pharmacol, 1991, 343, 439). […] One with skill in the art could determine the activity of the compounds of the present invention using the methodology of these assays, described herein, without undue experimentation.
# Schmied. Arch. Pharmacol. 343, 439 (1991)]. Agonist activity was determined utilizing relaxation of carbachol-contracted rat tunica muscularis mucosae (TMM). One 2 cm segment of intrathoracic esophagus proximal to the diaphragm was removed from male rats, weighing approximately 300 gm, and the outer muscle layers removed. The inner tunica muscularis mucosa was mounted under 0.2-0.3 g of tension in a tissue bath containing oxygenated Tyrode's solution at 37° C. […] Following a 30 minute equilibrium period, tissues were isometrically contracted with carbachol (3 μM) to obtain a tonic contraction. A stable plateau was obtained within 20 minutes when test compound was added cumulatively to relax the muscle strip. EC50 values were obtained for each agonist in tissues from 5 rats.
# antroduodenal motility = settings: dogs, cited from earlier work
# 5-HT3 receptor = target: T2, 5-HT3 receptor (Rattus norvegicus, UniProt P35563); assay: 5-HT3 radioligand receptor binding, [3H]-GR65630, rat brain cortex membranes
# T2 construct: Brain cortices were obtained from male rats and a membrane fraction prepared by standard techniques; from tissue; host or cells: rat brain cortex membranes
# T2 sequence (P35563 24-483): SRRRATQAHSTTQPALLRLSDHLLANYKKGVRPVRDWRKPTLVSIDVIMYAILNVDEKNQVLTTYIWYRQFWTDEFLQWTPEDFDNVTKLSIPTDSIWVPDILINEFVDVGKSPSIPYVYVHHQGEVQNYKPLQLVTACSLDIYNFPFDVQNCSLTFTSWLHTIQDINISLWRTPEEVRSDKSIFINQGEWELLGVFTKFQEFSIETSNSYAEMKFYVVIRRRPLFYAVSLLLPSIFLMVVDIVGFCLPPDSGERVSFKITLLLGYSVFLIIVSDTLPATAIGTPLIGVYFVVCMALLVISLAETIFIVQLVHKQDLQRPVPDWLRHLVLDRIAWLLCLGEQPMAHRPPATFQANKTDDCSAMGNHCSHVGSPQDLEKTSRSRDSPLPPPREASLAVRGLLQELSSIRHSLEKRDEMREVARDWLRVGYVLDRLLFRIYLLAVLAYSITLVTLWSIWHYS
# Description: as §1
# Procedure: GR65630 binds to the 5-HT3 receptor. Brain cortices were obtained from male rats and a membrane fraction prepared by standard techniques. 0.04 mg of membrane prep was incubated with 0.2 nM [^3 H]-GR65630 for 66 minutes at 22° C. […] Membranes were filtered and washed 3 times and the filters were counted to determine [^3 H]-GR65630 specifically bound. [Kilpatrick GJ, Jones BJ and Tyers MB, Identification and Distribution of 5-HT3 Receptors in Rat Brain Using Radioligand Binding Assay, Nature 330, 746-748 (1987)].
# GI transit [3] = settings: cited from earlier work
# gastric emptying = settings: in vivo; cited from earlier work
# [4] = system: guinea pig stomach strips; settings: in vitro; cited from earlier work
# GI transit [5] = settings: mice; cited from earlier work
# 5-HT3 = settings: in vivo; cited from earlier work
# T1 sequence (Q62758 whole entry): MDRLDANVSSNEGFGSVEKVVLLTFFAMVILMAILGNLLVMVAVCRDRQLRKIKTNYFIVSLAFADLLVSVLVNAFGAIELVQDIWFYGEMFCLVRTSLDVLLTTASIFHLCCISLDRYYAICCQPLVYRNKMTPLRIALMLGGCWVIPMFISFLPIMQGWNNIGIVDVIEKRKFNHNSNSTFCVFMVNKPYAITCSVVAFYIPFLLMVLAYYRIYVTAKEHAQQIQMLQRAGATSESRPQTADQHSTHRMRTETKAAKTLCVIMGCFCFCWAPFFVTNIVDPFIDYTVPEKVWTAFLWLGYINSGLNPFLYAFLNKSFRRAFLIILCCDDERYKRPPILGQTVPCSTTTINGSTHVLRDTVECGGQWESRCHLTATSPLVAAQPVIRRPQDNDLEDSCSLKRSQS
smiles,measurement,setting,value
COc1cc(N)c(Cl)cc1C(=O)NC1CCN2CCCC1C2 (stereo not shown) [BRL-24924],peristaltic reflex mediated through 5-HT4 receptors,5-HT4 receptors,mediated through agonism at 5-HT4 receptors
same,depolarization of myenteric neurons,myenteric neurons,depolarize myenteric neurons
same,prokinetic activity correlated with agonist activity at 5-HT4 receptor,5-HT4 receptor [1],correlate with agonist activity at a novel 5-HT4 receptor subtype
COc1cc(N)c(Cl)cc1C(=O)NC1CCN(CCCOc2ccc(F)cc2)CC1OC (stereo not shown) [Cisapride],EC50,5-HT4 receptor [2],55 nM
same,depolarization of myenteric neurons,myenteric neurons,depolarize myenteric neurons
same,prokinetic activity correlated with agonist activity at 5-HT4 receptor,5-HT4 receptor [1],correlate with agonist activity at a novel 5-HT4 receptor subtype
same,antroduodenal motility,antroduodenal motility,enhanced antroduodenal motility in dogs
"COc1cc(NC(C)=O)c(Cl)cc1C(=O)N[C@H]1[C@@H]2C[C@@H]3C[C@H]1CN3C2 [Example 1, Syn-4,(acetylamino)-5-chloro-N-(hexahydro-2,6-methano-1H-pyrrolizin8-yl)-2-methoxybenzamide]",EC50,5-HT4 receptor [2],3340 nM
"COc1cc(NC(C)=O)c(Cl)cc1C(=O)N[C@@H]1[C@@H]2C[C@@H]3C[C@H]1CN3C2 [Example 2, Anti-4-(acetylamino)-5-chloro-N-(hexahydro-2,6-methano-1H-pyrrolizin-8-yl)-2-methoxybenzamide]",EC50,5-HT4 receptor [2],> 10000 nM
"COc1cc(N)c(Cl)cc1C(=O)N[C@H]1[C@@H]2C[C@@H]3C[C@H]1CN3C2 [Example 3, Syn-4-amino-5-chloro-N-(hexahydro,2,6-methano-1H-pyrrolizin-8-yl)-2-methoxybenzamide]",EC50,5-HT4 receptor [2],2230 nM
"COc1cc(N)c(Cl)cc1C(=O)N[C@H]1[C@@H]2C[C@@H]3C[C@H]1CN3C2 [Example 4, Syn-4-amino-5-chloro-N-(hexahydro-2,6-methano-1H-pyrrolizin-8-yl)-2-methoxybenzamide, hydrochloride]",EC50,5-HT4 receptor [2],712 nM
same,Ki,5-HT3 receptor,22 nM
"COc1cc(N)c(Cl)cc1C(=O)N[C@@H]1[C@@H]2C[C@@H]3C[C@H]1CN3C2 [Example 5, Anti-4-amino-5-chloro-N-(hexahydro-2,6-methano-1H-pyrrolizin-8-yl)-2-methoxybenzamide]",EC50,5-HT4 receptor [2],705 nM
"COc1cc(N)c(Cl)cc1C(=O)N[C@@H]1[C@@H]2C[C@@H]3C[C@H]1CN3C2 [Example 6, Anti-4-amino-5-chloro-N-(hexahydro-2,6-methano-1H pyrrolizin-8-yl)-2-methoxybenzamide, monohydrochloride]",EC50,5-HT4 receptor [2],382 nM
same,Ki,5-HT3 receptor,3.8 nM
"COc1cc(NC(C)=O)c(Cl)cc1C(=O)NCC1C2CC3CC1CN3C2 (stereo not shown) [Example 7, 4-(Acetylamino)-5-chloro-N-(hexahydro-2,6-methano-1H-pyrrolizin-8-ylmethyl)-2-methoxybenzamide, hydrochloride]",EC50,5-HT4 receptor [2],≥ 10000 nM
"COc1cc(N)c(Cl)cc1C(=O)NCC1C2CC3CC1CN3C2 (stereo not shown) [Example 9, 4-Amino-5-chloro-N-(hexahydro,2,6-methano-1H-pyrrolizin-8-ylmethyl)-2-methoxybenzamide, monobydrochloride]",EC50,5-HT4 receptor [2],397 nM
"COc1cc(N)c(Cl)cc1C(=O)NC[C@@H]1[C@@H]2C[C@@H]3C[C@H]1CN3C2 [Example 11, Anti-4-amino-5-chloro-N-(hexahydro-2,6-methano-1H-pyrrolizin-8-ylmethyl)-2-methoxybenzamide, monohydrochloride]",EC50,5-HT4 receptor [2],660 nM
"COc1cc(N)c(Cl)cc1C(=O)OC1C2CC3CC1CN3C2 (stereo not shown) [Example 13, (Hexahydro-2,6-methano-1H-pyrrolizin-8-yl) 4-amino-5-chloro-2-methoxybenzoate]",EC50,5-HT4 receptor [2],216 nM
"COc1cc(N)c(Cl)cc1C(=O)NC[C@H]1[C@@H]2C[C@@H]3C[C@H]1CN3C2 [Example 14, Syn-4-amino-5-chloro-N-(hexahydro-2,6-methano-1H-pyrrolizin-8-ylmethyl)-2-methoxybenzamide, monohydrochloride]",EC50,5-HT4 receptor [2],421 nM
same,Ki,5-HT3 receptor,1.1 nM
Cc1nccn1CC1CCc2c(c3ccccc3n2C)C1=O (stereo not shown) [GR38032],GI transit / colonic transit,GI transit [3]; man (S. Gore et al.),"not only failed to accelerate GI transit, but in fact slowed colonic transit in man"
same,small intestinal transit times or mouth-to-cecum transit times,GI transit [3]; man (Talley et al.),did not alter small intestinal transit times or mouth-to-cecumtransit times
same,gastric emptying,gastric emptying,enhanced gastric emptying
Cc1nc[nH]c1CCC(=O)c1cn(C)c2ccccc12 [GR65630],Bmax,"5-HT3 receptor; [3H]-GR65630, rat brain cortex membranes",154 fmol/mg protein
same,% Specific Binding,"5-HT3 receptor; [3H]-GR65630, non-specific binding in presence of 1 uM ICS 205,930",70%
"CN1[C@@H]2CC[C@H]1C[C@@H](OC(=O)c1c[nH]c3ccccc13)C2 [ICS 205,930]",guinea pig stomach strip contraction,[4],enhanced guinea pig stomach muscle strip contraction in vitro
same,effect on responses to cisapride,antroduodenal motility; coadministered with cisapride,did not affect the responses to cisapride when the agents were coadministered
same,gastric emptying,gastric emptying,increases in gastric emptying rates in vivo; also recorded: enhanced gastric emptying
CN1[C@@H]2CC[C@H]1C[C@@H](OC(=O)c1cc(Cl)cc(Cl)c1)C2 [MDL 72222],guinea pig stomach strip contraction,[4],enhanced guinea pig stomach muscle strip contraction in vitro
same,gastric emptying,gastric emptying,increases in gastric emptying rates in vivo
Cc1nccn1CC1CCc2c(c3ccccc3n2C)C1=O.Cl.O.O (stereo not shown) [SN-307],transit of a charcoal meal,GI transit [5],enhanced transit of a charcoal meal in mice
"NCCc1c[nH]c2ccc(O)cc12 [Serotonin, 5-hydroxytryptamine]",peristaltic reflex mediated through 5-HT4 receptors,5-HT4 receptors,mediated through agonism at 5-HT4 receptors
CCN(CC)CCNC(=O)c1cc(Cl)c(N)cc1OC [metoclopramide],guinea pig stomach strip contraction,[4],enhanced electrical-field stimulated contractions in guinea pig stomach strips; also recorded: enhanced guinea pig stomach muscle strip contraction in vitro
same,5-HT3 mediated Bezold Jarisch reflex,5-HT3,blocks the 5-HT3 mediated Bezold Jarisch reflex
same,gastric emptying,gastric emptying,increases in gastric emptying rates in vivo
COc1cc(N)c(Cl)cc1C(=O)NC1CN2CCC1CC2 (stereo not shown) [zacopride],gastric emptying,gastric emptying,enhanced gastric emptying
